Laboratory results published in US7285555B2, “6-aryl-7-halo-imidazo[1,2-a]pyrimidines as anticancer agents” (Wyeth Holdings Corporation, priority 2003, dated 2007).

How the values were obtained:
MAP-rich tubulin = test: Tubulin polymerization test procedure with MAP-rich tubulin; type: biochemical, bovine; conditions: MAP-rich tubulin with 1 mM GTP, compound 0.3 μM, at 20 min
Method: (§1) Medium is RPMI-1640 with L-glutamine, supplemented with 10% heat-inactivated fetal calf serum, 100 units/mL penicillin, and 100 μg/mL streptomycin (Gibco, Grand Island, N.Y.). Microtubule-associated protein (MAP)-rich tubulin, containing about 70% tubulin and 30% MAPs (#ML113), and highly purified tubulin (>99% pure, #TL238), both from bovine brain, are obtained from Cytoskeleton, Inc., Denver, Colo. PEM buffer (80 mM piperazine-N,N′-bis[2-ethanesulfonic acid], pH 6.9, 1 mM ethylene glycol-bis(β-aminoethyl ether)-N,N,N′,N′-tetraacetic acid, 1 mM magnesium chloride) and guanosine 5′-triphosphate (GTP) are also obtained from Cytoskeleton. [^3H]paclitaxel, specific activity 14.7 Ci/mmol, is purchased from Moravek Biochemicals (Brea, Calif.). [^3H]vinblastine, specific activity 9.60 Ci/mmol and MicroSpin G-50 columns are obtained from Amersham Biosciences (Piscataway, N.J.). […] Other reagents are obtained from Sigma (St. Louis, Mo.).
MAP-rich tubulin is dissolved in ice-cold PEM buffer containing 1 mM GTP (GPEM buffer) at a concentration of 1.3 mg/mL. The solution is centrifuged at top speed in an Eppendorf model 5415C microcentrifuge (Brinkmann Instruments, Westbury, N.Y.) for 10 min at 40 immediately before use. The tubulin solution is added to wells of a ½-area 96-well plate (Costar No. 3696, Corning, Inc., Corning, N.Y.) already containing the compounds of interest. Each compound is tested in duplicate at a final concentration of 0.3 μM in a volume of 110 μL per well. The final DMSO concentration in all wells is 0.3%. Control reactions, which receive compound solvent only, are done in quadruplicate. The plate is put in a SpectraMax Plus plate reader (Molecular Devices Corp. Sunnyvale, Calif.) thermostated at 240 and the absorbance of each well at 340 nm, a measure of the appearance of turbidity due to tubulin polymer formation, is determined every minute for 60 minutes. The absorbance at time 0 for each well is subtracted from each of the subsequent absorbance readings for that well, and then the duplicates are averaged.
In this assay, control reactions with MAP-rich tubulin show an S-shaped absorbance profile characterized by three phases: first, a lag phase during which no change in absorbance occurs; second, a polymerization phase in which absorbance increases; and third, a plateau phase in which absorbance has reached a maximum and little or no further change occurs. Polymerization enhancers such as paclitaxel and docetaxel shorten or eliminate the lag phase, increase the rate of the polymerization phase, and often increase the height of the plateau. […] This has been expressed quantitatively in Table 6 by dividing the mean A340 of each sample at 20 min by the mean A340 of the control at 20 min to give a fold enhancement over control. […]

[1] = test system: polymerized tubulin (microtubules); test: Competitive binding test procedure, [3H]paclitaxel; parameters: species or system bovine; conditions: [3H]paclitaxel 2.1 μM
Method: as §1
(§2) The binding of examples of this invention to highly purified tubulin is studied by competitive inhibition methods. […] To study possible competition at the taxane site, on the other hand, polymerized tubulin (microtubules) is used because paclitaxel binds preferentially to microtubules.
For competition with [^3H]paclitaxel, highly purified tubulin is dissolved in PEM buffer containing 0.75 M glutamate and 25 μM dideoxy-GTP; final protein concentration is 0.25 to 0.35 mg/mL (2.5 to 3.5 μM). These conditions foster the rapid formation of short, stable microtubule polymers (Hamel, E., del Campo, A. A., and Lin, C. M. Stability of tubulin polymers formed with dideoxyguanosine nucleotides in the presence and absence of microtubule-associated proteins. J. Biol. Chem., 259: 2501-2508, 1984). […] The reactions are then centrifuged at top speed in an Eppendorf 5415C microfuge for 20 min at room temperature in order to pellet the microtubule protein. Triplicate aliquots of each supernatant are mixed with scintillation fluid and counted in a liquid scintillation spectrometer. From the amount of radioactivity in the supernatants and the measured total starting radioactivity, the amount of [^3H]paclitaxel bound to pelleted microtubule protein is calculated. The ability of each competitor to inhibit radioligand binding to pelleted protein is expressed as a percent of controls without any competitor.

[2] = test system: highly purified tubulin (tubulin heterodimer); test: Competitive binding test procedure, [3H]colchicine; parameters: species or system bovine; conditions: competitor 100 μM, [3H]colchicine 50 nM
Method: as §1, §2
(§3) Highly purified tubulin is dissolved in PEM buffer without GTP and used at a final concentration of 1.0 to 1.3 mg/ml (10 to 13 μM). […] These solutions are incubated at 240 for 1 hr and then applied to MicroSpin G-50 columns which are centrifuged for 2 min at 3000 rpm in an Eppendorf 5415C microfuge. An aliquot of each column effluent (containing tubulin and bound radioligand) is mixed with scintillation fluid and counted in a liquid scintillation spectrometer. […] Quadruplicates are averaged, and the ability of the competitor to inhibit the binding of the radioligand is expressed as a percentage of control binding in the absence of any competitor.

pure tubulin = test: Tubulin polymerization test procedure with pure tubulin; type: biochemical, bovine; conditions: for polymerization of pure tubulin without GTP (in words): pure tubulin without added GTP
Method: as §1
The procedure with pure tubulin is similar except for the following changes. […] The supernatant after centrifugation is dispensed to a ½-area 96-well plate already containing compounds. Each compound is tested in duplicate at a final concentration of 24.3 μM. The plate reader μs thermostated at 35°.

[3] = test system: highly purified tubulin (tubulin heterodimer); test: Competitive binding test procedure, [3H]vinblastine; parameters: species or system bovine; conditions: competitor 100 μM, [3H]vinblastine 100 nM
Method: as §1, §2, §3

| SMILES | A340 Compound / A340 Control (fold enhancement over control) (MAP-rich tubulin) | [3H]Paclitaxel binding, Mean, percent of binding to control without competitor ([1]; competitor unlabeled paclitaxel 5 μM) | [3H]Colchicine binding, Mean, percent of binding to control without competitor [2] | polymerization of pure tubulin without GTP (in words) (pure tubulin) | [3H]Vinblastine binding, Mean, percent of binding to control without competitor [3] | [3H]Paclitaxel binding, Mean, percent of binding to control without competitor ([1]; competitor 20 μM) | [3H]Paclitaxel binding, Mean, percent of binding to control without competitor ([1]; competitor 20 μM, listed as example 6) | [3H]Colchicine binding, Mean, percent of binding to control without competitor ([2]; listed as example 6) | A340 at 0 min (pure tubulin; pure tubulin, no added GTP, compound 24.3 μM, 0 min) | A340 at 5 min (pure tubulin; pure tubulin, no added GTP, compound 24.3 μM, 5 min) | A340 at 10 min (pure tubulin; pure tubulin, no added GTP, compound 24.3 μM, 10 min) | A340 at 15 min (pure tubulin; pure tubulin, no added GTP, compound 24.3 μM, 15 min) | A340 at 20 min (pure tubulin; pure tubulin, no added GTP, compound 24.3 μM, 20 min) |
| --- | --- | --- | --- | --- | --- | --- | --- | --- | --- | --- | --- | --- | --- |
| CC(=O)O[C@H]1C(=O)[C@@]2(C)[C@H]([C@H](OC(=O)c3ccccc3)[C@]3(O)C[C@H](OC(=O)[C@H](O)[C@@H](NC(=O)c4ccccc4)c4ccccc4)C(C)=C1C3(C)C)[C@]1(OC(C)=O)CO[C@@H]1C[C@@H]2O [Paclitaxel, reference compound] | 1.8 | 35% | 93% | able to induce polymerization | 92% |  |  |  |  |  |  |  |  |
| CN(C)CCCOc1cc(F)c(-c2c(Cl)nc3nccn3c2C2CCCCCC2)c(F)c1 [Example 6, 3-[4-(7-Chloro-5-cycloheptylimidazo[1,2-a]pyrimidin-6-yl)-3,5-difluorophenoxy]-N,N-dimethylpropan-1-amine] | 1.7 |  | 84% | induces polymerization | 17% | 92% | does not inhibit | does not inhibit | 0 | 0.15 | 0.19 | 0.19 | 0.19 |
